{
  "source": "patent US8546585B2",
  "about": "“Process for preparing eprosartan mesylate” (Zhejiang Huahai Pharmaceutical Co., Ltd., priority 2008, dated 2013)",
  "origin": "cited, not measured here",
  "key": {"[1]": {"assay": "not given", "remark": "listed apart in the source"}, "[2]": {"conditions": "mild, moderate and severe hypertensive patients"}, "[3]": {"conditions": "patients with liver and kidney dysfunction, or fullness after administration"}},
  "note": "Where a name gives a salt, the structure may show the parent alone.",
  "data": [
    {"smiles": "CCCCc1ncc(/C=C(\\Cc2cccs2)C(=O)O)n1Cc1ccc(C(=O)O)cc1", "note": "[Eprosartan mesylate]", "values": [
      {"measurement": "absorption", "setting": "administrated orally", "value": "rapidly absorbed"},
      {"measurement": "AUC (Area Under Curve) elevated by", "setting": "[3]", "value": "about 50%"},
      {"measurement": "blood peak concentration elevated by", "setting": "[3]", "value": "about 50%"},
      {"measurement": "protein binding rate", "setting": "[1]", "value": 98, "unit": "%"},
      {"measurement": "lowering of systolic and diastolic pressures", "setting": "[2]", "value": "potent to lower systolic and diastolic pressures"},
      {"measurement": "safety and tolerability", "setting": "[2]", "value": "safe and tolerable"}
    ]}
  ]
}
